Experiments:
Format in all cases: in vivo
Scirpus juncoides [1] = assay: Test Example 2: herbicidal activity, application during weed generation in submerged conditions; conditions: Eighteenth Table
Source text: (§1) 5 Herbicidal ratio of 90% or more (almost completely withered) 4 Herbicidal ratio of 70% or more and less than 90% 3 Herbicidal ratio of 40% or more and less than 70% 2 Herbicidal ratio of 20% or more and less than 40% 1 Herbicidal ratio of 5% or more and less than 20% 0 Herbicidal ratio of 5% or less (almost no effect) [Test Example 2] Herbicidal Activity Test by Application During Weed Generation in Submerged Conditions After alluvial soil was placed into 1/10000 are of Wagner pot, water was poured and mixed to form a submerged condition having a water depth of 4 cm. Seeds of Echinochloa oryzacola Vasing., Scirpus juncoides, and Monochoria vaginalis were sowed in a mixed manner in the above pot and the pot was placed in the greenhouse of 25° C. to 30° C. to grow the plants. When Echinochloa oryzacola Vasing., Scirpus juncoides, and Monochoria vaginalis were grown to one leaf stage to two leaf stage, the emulsion agent containing the compound of the present invention prepared in accordance with Formulation Example 2 was diluted with water so as to be a predetermined herbicide amount and the diluted compound was applied to the surface of the water. Three weeks after the herbicide application, effects on each plant were investigated in accordance with the criteria of Test Example 1. A: Echinochloa oryzicola Vasing., B: Scirpus juncoides, C: Monochoria vaginalis, D: Leptochloa chinensis, E: Cyperus difformis, F: Digitaria ciliaris, G: Setaria viridis, H: Echinochloa crus-galli var. crus-galli, I: Avena fatua, J: Alopecurus myosuroides, K: Lolium multiflorum Lam., L: Apera spica-venti., M: Abutilon theophrasti, N: Amaranthus retroflexus, O: Chenopodium album, P: Stellaria media, Q: Galium spurium, R: Veronica persica, a: transplanted Oryza sativa, b: directly sowed Oryza sativa, c: Zea mays, d: Glycine max, e: Triticum aestivum, f: Beta vulgaris ssp. vulgaris, and g: Brassica campestris L. The application herbicide amount (g/ha) means an amount that a concentration is adjusted so that, when an application amount is converted into per hectare (1 ha), the herbicide is applied by the number of grams (g) of the described value.

[2] = test system: Echinochloa oryzacola Vasing.; assay: as above; conditions: Eighteenth Table
Source text: as §1

Monochoria vaginalis [3] = assay: as above; conditions: Eighteenth Table
Source text: as §1

Scirpus juncoides [4] = assay: Test Example 1: herbicidal activity, application before weed generation in submerged conditions; conditions: Application herbicide amount 320 g/ha; Seventeenth Table
Outline: (§2)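 Pre-emergence application to water surface of submerged pots (4 cm depth, alluvial soil) on sowing day, with 2.5-leaf rice transplanted; emulsion diluted to g/ha rates. Grown in greenhouse at 25–30 °C; 0–5 herbicidal/crop-effect score after three weeks.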

[5] = test system: Echinochloa oryzacola Vasing.; assay: as above; conditions: Application herbicide amount 320 g/ha; Seventeenth Table
Outline: as §2

Monochoria vaginalis [6] = assay: as above; conditions: Application herbicide amount 320 g/ha; Seventeenth Table
Outline: as §2

Triticum aestivum = assay: Test Example 4: effect on crop by application to foliage (diluvial soil, plastic box); conditions: application to foliage, application herbicide amount 320 g/ha
Outline: (§3)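 Plants were grown in sterilized diluvial soil in a greenhouse at 25-30° C for 14 days, then sprayed on stems and leaves with water-diluted emulsion formulation at set rates in g/ha. Weed control and crop injury were scored 3 weeks after treatment on a 0-5 herbicidal-ratio scale, from 0 (≤5%) to 5 (≥90%).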

[7] = test system: Echinochloa crus-galli var. crus-galli; assay: Test Example 4: herbicidal effect by application to foliage (diluvial soil, plastic box); conditions: application to foliage, application herbicide amount 320 g/ha
Outline: as §3

Chenopodium album = assay: as above; conditions: application to foliage, application herbicide amount 320 g/ha
Outline: as §3

[8] = application herbicide amount 280 g/ha
[9] = application herbicide amount 320 g/ha

Row | Compound | B (Scirpus juncoides) herbicidal ratio grade (Scirpus juncoides [1]; [8]) | A (Echinochloa oryzicola Vasing.) herbicidal ratio grade [2, 8] | C (Monochoria vaginalis) herbicidal ratio grade (Monochoria vaginalis [3]; [8]) | B: Scirpus juncoides (herbicidal effect grade) (Scirpus juncoides [4]) | A: Echinochloa oryzicola Vasing. (herbicidal effect grade) [5] | C: Monochoria vaginalis (herbicidal effect grade) (Monochoria vaginalis [6]) | e (Triticum aestivum) effect on crop (Triticum aestivum) | H (Echinochloa crus-galli var. crus-galli) herbicidal effect [7] | O (Chenopodium album) herbicidal effect (Chenopodium album) | B (Scirpus juncoides) herbicidal ratio grade (Scirpus juncoides [1]; [9]) | A (Echinochloa oryzicola Vasing.) herbicidal ratio grade [2, 9] | C (Monochoria vaginalis) herbicidal ratio grade (Monochoria vaginalis [3]; [9])
1 | Cc1nnc(NC(=O)c2ccc(C(F)(F)F)n3c(Br)nnc23)o1 [1-014] | 3 (Herbicidal ratio of 40% or more and less than 70%) | 2 (Herbicidal ratio of 20% or more and less than 40%) | 0 (Herbicidal ratio of 5% or less (almost no effect)) | 4 (Herbicidal ratio of 70% or more and less than 90%) | 5 (Herbicidal ratio of 90% or more (almost completely withered)) | 3 (Herbicidal ratio of 40% or more and less than 70%) | 1 (Herbicidal ratio of 5% or more and less than 20%) | 4 (Herbicidal ratio of 70% or more and less than 90%) | 5 (Herbicidal ratio of 90% or more (almost completely withered)) | – | – | –
2 | COCc1nnc2c(C(=O)Nc3nnc(C)o3)ccc(C(F)(F)F)n12 [1-015] | – | – | – | 3 (Herbicidal ratio of 40% or more and less than 70%) | 2 (Herbicidal ratio of 20% or more and less than 40%) | 3 (Herbicidal ratio of 40% or more and less than 70%) | 2 (Herbicidal ratio of 20% or more and less than 40%) | 5 (Herbicidal ratio of 90% or more (almost completely withered)) | 5 (Herbicidal ratio of 90% or more (almost completely withered)) | 2 (Herbicidal ratio of 20% or more and less than 40%) | 4 (Herbicidal ratio of 70% or more and less than 90%) | 1 (Herbicidal ratio of 5% or more and less than 20%)
3 | COc1ccc(-c2nnc3c(C(=O)Nc4nnc(C)o4)ccc(C(F)(F)F)n23)cc1 [1-016] | – | – | – | 0 (Herbicidal ratio of 5% or less (almost no effect)) | 4 (Herbicidal ratio of 70% or more and less than 90%) | 0 (Herbicidal ratio of 5% or less (almost no effect)) | 0 (Herbicidal ratio of 5% or less (almost no effect)) | 5 (Herbicidal ratio of 90% or more (almost completely withered)) | 5 (Herbicidal ratio of 90% or more (almost completely withered)) | 0 (Herbicidal ratio of 5% or less (almost no effect)) | 3 (Herbicidal ratio of 40% or more and less than 70%) | 0 (Herbicidal ratio of 5% or less (almost no effect))
4 | Cc1nnc(NC(=O)c2ccc(C(F)(F)F)n3c(-c4ccc(Cl)cc4)nnc23)o1 [1-017] | – | – | – | 2 (Herbicidal ratio of 20% or more and less than 40%) | 3 (Herbicidal ratio of 40% or more and less than 70%) | 0 (Herbicidal ratio of 5% or less (almost no effect)) | 0 (Herbicidal ratio of 5% or less (almost no effect)) | 5 (Herbicidal ratio of 90% or more (almost completely withered)) | 5 (Herbicidal ratio of 90% or more (almost completely withered)) | 2 (Herbicidal ratio of 20% or more and less than 40%) | 2 (Herbicidal ratio of 20% or more and less than 40%) | 0 (Herbicidal ratio of 5% or less (almost no effect))
5 | CSc1nnc2c(C(=O)Nc3nnc(C)o3)ccc(C(F)(F)F)n12 [1-018, N-(5-Methyl-1,3,4-oxadiazol-2-yl)-3-(methylthio)-5-(trifluoromethyl)-[1,2,4]triazol o[4,3-a]pyridine-8-carboxamide] | – | – | – | 3 (Herbicidal ratio of 40% or more and less than 70%) | 1 (Herbicidal ratio of 5% or more and less than 20%) | 5 (Herbicidal ratio of 90% or more (almost completely withered)) | 0 (Herbicidal ratio of 5% or less (almost no effect)) | 1 (Herbicidal ratio of 5% or more and less than 20%) | 5 (Herbicidal ratio of 90% or more (almost completely withered)) | 2 (Herbicidal ratio of 20% or more and less than 40%) | 0 (Herbicidal ratio of 5% or less (almost no effect)) | 0 (Herbicidal ratio of 5% or less (almost no effect))
6 | COCCOCc1nnc2c(C(=O)Nc3nnc(C)o3)ccc(C(F)(F)F)n12 [1-019] | – | – | – | 3 (Herbicidal ratio of 40% or more and less than 70%) | 5 (Herbicidal ratio of 90% or more (almost completely withered)) | 4 (Herbicidal ratio of 70% or more and less than 90%) | 3 (Herbicidal ratio of 40% or more and less than 70%) | 5 (Herbicidal ratio of 90% or more (almost completely withered)) | 5 (Herbicidal ratio of 90% or more (almost completely withered)) | 3 (Herbicidal ratio of 40% or more and less than 70%) | 4 (Herbicidal ratio of 70% or more and less than 90%) | 3 (Herbicidal ratio of 40% or more and less than 70%)
7 | Cc1nnc(NC(=O)c2ccc(C(F)(F)F)n3c(COCC(F)(F)F)nnc23)o1 [1-020] | – | – | – | 3 (Herbicidal ratio of 40% or more and less than 70%) | 4 (Herbicidal ratio of 70% or more and less than 90%) | 2 (Herbicidal ratio of 20% or more and less than 40%) | 1 (Herbicidal ratio of 5% or more and less than 20%) | 5 (Herbicidal ratio of 90% or more (almost completely withered)) | 5 (Herbicidal ratio of 90% or more (almost completely withered)) | 2 (Herbicidal ratio of 20% or more and less than 40%) | 2 (Herbicidal ratio of 20% or more and less than 40%) | 2 (Herbicidal ratio of 20% or more and less than 40%)
8 | CCC(C)c1nnc2c(C(=O)Nc3nnc(C)o3)ccc(C(F)(F)F)n12 (stereo not drawn) [1-021] | – | – | – | 4 (Herbicidal ratio of 70% or more and less than 90%) | 5 (Herbicidal ratio of 90% or more (almost completely withered)) | 4 (Herbicidal ratio of 70% or more and less than 90%) | 1 (Herbicidal ratio of 5% or more and less than 20%) | 4 (Herbicidal ratio of 70% or more and less than 90%) | 5 (Herbicidal ratio of 90% or more (almost completely withered)) | 4 (Herbicidal ratio of 70% or more and less than 90%) | 4 (Herbicidal ratio of 70% or more and less than 90%) | 3 (Herbicidal ratio of 40% or more and less than 70%)

Reference: patent US9708314B2, “Heterocyclic amide compound” (NISSAN CHEMICAL INDUSTRIES, LTD., priority 2013, dated 2017)
